Where “and” joins values, the source holds several entries; their conditions need not be identical. Identical values can stand only once. Like-named read-outs stand apart in the source and are kept apart here.
Assays:
[1] = tested on: D54 tumor; details: intraarterial or intravenous administration; cited from earlier work
[2] = tested on: L1210 leukemia; test: intracerebrally implanted L1210 leukemia in vivo; parameters: species or system murine; details: for leukemia cell burden after therapy: highest non-toxic dose; for increase in lifespan (ILS): highest non-toxic doses
[3] = tested on: D54; details: intrathecal administration; cited from earlier work
[4] = tested on: TE-671; details: intrathecal administration; cited from earlier work
[5] = tested on: human glioblastoma xenograft U-251; assay type: in vivo
[6] = tested on: MX-1 human breast tumor; assay type: in vivo
[7] = tested on: L1210 leukemia; details: intracerebral L1210 model, typical value; cited from earlier work
[8] = tested on: L1210 leukemia; details: IP implant; cited from earlier work
[9] = after 6 hours, ambient temperature, 31P-NMR
[10] = tested on: pBR322 DNA
[11] = tested on: SNB-7; details: SNB-7 glioma cell line
Source text: (§1) Additional in vitro studies vs. U251, D54 and MDA-MB-361 cells also included 4-HC.

[12] = tested on: SNB-19; details: SNB-19 glioma cell line
Source text: as §1

[13] = tested on: SF-268; details: SF-268 glioma cell line
Source text: as §1

Compound: O=P1(N(CCCl)CCCl)NC(OO)CCO1 (centres unmarked) [4-HC, 4-hydroperoxycyclophosphamide]
- activity against D54 tumor [1]: active
- activity against intracerebrally implanted L1210 leukemia ([2]; implant of 10^4 cells): essentially inactive
- activity against D54 brain tumor model [3]: active
- activity against TE-671 brain tumor model [4]: active

Compound: O=NN(CCCl)C(=O)NCCCl [BCNU, carmustine, reference compound]
- ILS ([5]; in vivo): 110-150% and 130%
- ILS ([6]; in vivo): 13%

Compound: O=P1(N(CCCl)CCCl)NCCCO1 (centres unmarked) [CPA, cyclophosphamide, reference compound]
- leukemia cell burden after therapy ([2]; implant of 10^4 cells): 1.3×10^2 cells
- increase in lifespan (ILS) ([2]; implant of 10^5 L1210 cells): 37%
- highest non-toxic dose (typical) [7]: 250 to 300 mg/kg

Compound: O=P1(N(CCCl)CCCl)NC(OOC2CCOP(=O)(N(CCCl)CCCl)N2)CCO1 (centres unmarked) [peroxyCPA, 4-peroxy-cyclophosphamide]
- ILS ([5]; IC-implanted U-251, one (first) study): 300-350%
- ILS ([5]; IC-implanted U-251, second study): 180%
- activity against intraperitoneally-implanted L1210 leukemia [8]: curative activity
- remaining in human serum [9]: 74%
- leukemia cell burden after therapy ([2]; implant of 10^4 cells): 1.0×10^0 cells
- increase in lifespan (ILS) over controls ([2]; implant of 10^4 cells, highest non-toxic dose (300 mg/kg)): 85%
- reduction of leukemia cell burden relative to CPA ([2]; implant of 10^5 L1210 cells): two orders of magnitude more
- increase in lifespan (ILS) ([2]; implant of 10^5 L1210 cells): 100%
- highest non-toxic dose ([2]; intracerebral L1210 model): 300 mg/kg
- DNA crosslinking [10]: crosslinks DNA
- in vitro activity compared to BCNU and temozolomide [11]: superior activity
- in vitro activity compared to BCNU and temozolomide [12]: superior activity
- in vitro activity compared to BCNU and temozolomide [13]: superior activity
- ILS ([6]; IC-implanted MX-1): 69%
